Several values for one entry are separate records, joined by “and”; a condition that tells them apart may be missing. Identical values can stand only once.
Each compound was assayed against T1, human opioid receptor-like receptor (ORL-1) (Homo sapiens, UniProt P41146) (assay: biochemical). Details: Nociceptin Affinity calc Ki.
T1 construct: host or cells: HEK-293
T1 sequence (P41146 whole entry): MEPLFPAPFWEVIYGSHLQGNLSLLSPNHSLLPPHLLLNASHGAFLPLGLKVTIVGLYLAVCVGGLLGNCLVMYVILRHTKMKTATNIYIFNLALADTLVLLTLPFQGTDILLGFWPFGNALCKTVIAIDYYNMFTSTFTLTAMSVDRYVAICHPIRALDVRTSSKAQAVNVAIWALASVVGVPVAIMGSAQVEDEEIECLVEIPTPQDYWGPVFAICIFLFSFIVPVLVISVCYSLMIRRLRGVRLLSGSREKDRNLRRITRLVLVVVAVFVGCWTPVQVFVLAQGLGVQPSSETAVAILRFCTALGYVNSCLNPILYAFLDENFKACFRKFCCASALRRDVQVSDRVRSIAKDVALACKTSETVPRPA
Assay type: binding
`O=C1NN=C(c2ccccc2)C12CCN(Cc1ccc(OCc3ccccc3)cc1)CC2` [8-(p-benzyloxybenzyl)-4-phenyl-2,3,8-triazospiro[4.5]dec-3-en-1-one] gave a Ki of 0.138 µM. With `O=C1NN=C(c2ccccc2)C12CCN(C1CCC3CCCCC3C1)CC2` (centres unmarked) [8-(decahydro-2-naphthyl)-4-phenyl-2,3,8-triazospiro[4.5]dec-3-en-1-one] the Ki was 0.0011 µM. For `O=C1NN=C(c2ccccc2)C12CCN(Cc1ccccc1)CC2` [8-(benzyl)-4-phenyl-2,3,8-triazospiro[4.5]dec-3-en-1-one], the Ki was 0.293 µM. `CCCC1CCC(N2CCC3(CC2)C(=O)NN=C3c2ccccc2)CC1` (centres unmarked) [8-(4-propylcyclohexyl)-4-phenyl-2,3,8-triazospiro[4.5]dec-3-en-1-one] showed a Ki of 0.0297 µM. `O=C1NN=C(c2ccccc2)C12CCN(CC1CCCCCCC1)CC2` [8-(cyclooctylmethyl)-4-phenyl-2,3,8-triazospiro[4.5]dec-3-en-1-one] was tested, and the Ki was 0.0081 µM and 0.061 µM. For `O=C1NN=C(c2ccccc2)C12CCN(Cc1ccc(-c3ccccc3)cc1)CC2` [8-(p-phenylbenzyl)-4-phenyl-2,3,8-triazospiro[4.5]dec-3-en-1-one], the Ki was 7.17 µM. With `O=C1NN=C(c2ccccc2)C12CCN(CCCC(c1ccc(F)cc1)c1ccc(F)cc1)CC2` [8-[4,4-Bis(4-fluorophenyl)butyl]-4-phenyl-2,3,8-triazospiro[4.5]dec-3-en-1-one] the Ki was 2.59 µM. With `CC(C)CCC(C)N1CCC2(CC1)C(=O)NN=C2c1ccccc1` (centres unmarked) [8-(5-methylhex-2-yl)-4-phenyl-2,3,8-triazospiro[4.5]dec-3-en-1-one] the Ki was 0.0115 µM. With `O=C1NN=C(c2ccccc2)C12CCN(Cc1ccc3ccccc3c1)CC2` [8-[(naphth-2-yl-methyl)]-4-phenyl-2,3,8-triazospiro[4.5]dec-3-en-1-one] the Ki was 0.402 µM. With `O=C1NN=C(c2ccccc2)C12CCN(C1c3ccccc3CCc3ccccc31)CC2` [8-(10,11-Dihydro-5H-dibenzo[a,d]-cyclohepten-5-yl)-4-phenyl-2,3,8-triazospiro[4.5]dec-3-en-1-one] the Ki was 0.282 µM. With `O=C1NN=C(c2ccccc2)C12CCN(CCC(c1ccccc1)c1ccccc1)CC2` [8-(3,3-Bis(phenyl)propyl)-4-phenyl-2,3,8-triazospiro[4.5]dec-3-en-1-one] the Ki was 0.075 µM. Compound `CC(C)C1CCC(N2CCC3(CC2)C(=O)NN=C3c2ccccc2)CC1` (centres unmarked) [8-[4-(2-propyl)-cyclohexyl]-4-phenyl-2,3,8-triazospiro[4.5]dec-3-en-1-one] has a Ki of 0.0015 µM.

Same assay, conditions: read-out: Nociceptin Affinity calc Ki
`O=C1NN=C(c2ccccc2)C12CCN(C1CC3CCC1C3)CC2` (centres unmarked) [8-norbornyl-4-phenyl-2,3,8-triazospiro[4.5]dec-3-en-1-one] gave a Ki of 0.897 µM.

These compounds were tested against Mu opioid receptor (Homo sapiens, UniProt P35372) (assay: Affinity at the μ receptor ([35S]GTPγS binding assay, membranes)). Details: read-out: Mu Receptor Affinity calc Ki.
Sequence of Mu opioid receptor (P35372 whole entry, species assumed): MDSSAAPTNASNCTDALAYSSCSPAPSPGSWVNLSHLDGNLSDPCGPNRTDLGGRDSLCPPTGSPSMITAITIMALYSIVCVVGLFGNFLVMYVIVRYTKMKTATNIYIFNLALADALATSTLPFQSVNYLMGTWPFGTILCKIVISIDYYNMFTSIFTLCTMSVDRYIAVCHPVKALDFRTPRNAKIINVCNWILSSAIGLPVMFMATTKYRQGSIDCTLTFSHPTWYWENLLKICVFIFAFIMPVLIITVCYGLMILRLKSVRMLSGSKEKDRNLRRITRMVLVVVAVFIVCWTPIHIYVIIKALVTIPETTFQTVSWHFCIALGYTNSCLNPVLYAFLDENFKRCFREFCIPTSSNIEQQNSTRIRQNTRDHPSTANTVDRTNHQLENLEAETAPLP
Procedure: Affinity at the μ receptor for compounds was obtained according to the following assay:
Mu opioid receptor membrane solution was prepared by sequentially adding final concentrations of 0.075 μg/μl of the desired membrane protein, 10 μg/ml saponin, 3 μM GDP and 0.20 nM [^35S]GTPγS to binding buffer (100 mM NaCl, 10 mM MgCl2, 20 mM HEPES, pH 7.4) on ice. The prepared membrane solution (190 μl/well) was transferred to 96-shallow well polypropylene plates containing 10 μl of 20×concentrated stock solutions of agonist prepared in DMSO. Plates were incubated for 30 min at room temperature with shaking. Reactions were terminated by rapid filtration onto 96-well Unifilter GF/B filter plates (Packard) using a 96-well tissue harvester (Brandel) and followed by three filtration washes with 200 μl ice-cold binding buffer (10 mM NaH2PO4, 10 mM Na2HPO4, pH 7.4). Filter plates were subsequently dried at 50° C. for 2-3 hours. Fifty μl/well scintillation cocktail (MicroScint20, Packard) was added and plates were counted in a Packard Top-Count for 1 min/well.
Data were analyzed using the curve fitting functions in GraphPad PRISM™, v.3.0 and the results for several compounds are set forth in table 2 below: […]
For `O=C1NNC(c2ccccc2)C12CCN(Cc1ccc3ccccc3c1)CC2` (centres unmarked) [8-[(naphth-2-yl-methyl)]-1-phenyl-2,3,8-triazospiro[4.5]decan-4-one], the Ki was 0.084 µM. `O=C1NNC(c2ccccc2)C12CCN(C1CCc3ccccc3C1)CC2` (centres unmarked) [8-(1,2,3,4-tetrahydro-2-naphthyl)-1-phenyl-2,3,8-triazospiro[4.5]decan-4-one] gave a Ki of 0.115 µM. Compound `O=C1NNC(c2ccccc2)C12CCN(Cc1ccccc1)CC2` (centres unmarked) [8-(benzyl)-1-phenyl-2,3,8-triazospiro[4.5]decan-4-one] has a Ki of 0.056 µM. For `O=C1NNC(c2ccccc2)C12CCN(CC1CCCCCCC1)CC2` (centres unmarked) [8-(cyclooctylmethyl)-1-phenyl-2,3,8-triazospiro[4.5]decan-4-one], the Ki was 0.191 µM.

Source: patent publication US6635653B2 (priority 2001, dated 2003)
